Experiments:
[1] = test system: Mus musculus; experiment: Anti-inflammatory activity in mouse model of xylene-induced ear edema assessed as inhibition of ear edema at 10 mg/kg, ip pre-treated before xylene injection and measured 1 hr post xylene injection relative to untreated control; assay type: functional
[2] = test system: Mus musculus; experiment: Analgesic activity in mouse at 100 mg/kg, ip measured after 60 mins at 58 degC by hot plate method; assay type: functional
[3] = test system: Mus musculus; experiment: Analgesic activity in mouse at 10 mg/kg, ip measured after 60 mins at 58 degC by hot plate method; assay type: functional
[4] = test system: Mus musculus; experiment: Anti-inflammatory activity in mouse model of xylene-induced ear edema assessed as inhibition of ear edema at 100 mg/kg, ip pre-treated before xylene injection and measured 1 hr post xylene injection relative to untreated control; assay type: functional
[5] = test system: Mus musculus; experiment: Anti-inflammatory activity in mouse model of xylene-induced ear edema assessed as inhibition of ear edema at 10 to 30 mg/kg, ip pre-treated before xylene injection and measured 1 hr post xylene injection relative to untreated control; assay type: functional, organism-based
[6] = test system: Mus musculus; experiment: Analgesic activity in mouse at 20 mg/kg, ip measured after 60 mins at 58 degC by hot plate method; assay type: functional
[7] = test system: Mus musculus; experiment: Anti-inflammatory activity in mouse model of xylene-induced ear edema assessed as inhibition of ear edema at 20 mg/kg, ip pre-treated before xylene injection and measured 1 hr post xylene injection relative to untreated control; assay type: functional
[8] = test system: Mus musculus; experiment: Anti-inflammatory activity in mouse model of xylene-induced ear edema assessed as inhibition of ear edema at 30 mg/kg, ip pre-treated before xylene injection and measured 1 hr post xylene injection relative to untreated control; assay type: functional
[9] = test system: Mus musculus; experiment: Analgesic activity in mouse at 30 mg/kg, ip measured after 60 mins at 58 degC by hot plate method; assay type: functional
[10] = biological target: T1, Prostaglandin G/H synthase 1 (Ovis aries, UniProt P05979); experiment: Inhibition of ovine COX1
T1 sequence (P05979 whole entry): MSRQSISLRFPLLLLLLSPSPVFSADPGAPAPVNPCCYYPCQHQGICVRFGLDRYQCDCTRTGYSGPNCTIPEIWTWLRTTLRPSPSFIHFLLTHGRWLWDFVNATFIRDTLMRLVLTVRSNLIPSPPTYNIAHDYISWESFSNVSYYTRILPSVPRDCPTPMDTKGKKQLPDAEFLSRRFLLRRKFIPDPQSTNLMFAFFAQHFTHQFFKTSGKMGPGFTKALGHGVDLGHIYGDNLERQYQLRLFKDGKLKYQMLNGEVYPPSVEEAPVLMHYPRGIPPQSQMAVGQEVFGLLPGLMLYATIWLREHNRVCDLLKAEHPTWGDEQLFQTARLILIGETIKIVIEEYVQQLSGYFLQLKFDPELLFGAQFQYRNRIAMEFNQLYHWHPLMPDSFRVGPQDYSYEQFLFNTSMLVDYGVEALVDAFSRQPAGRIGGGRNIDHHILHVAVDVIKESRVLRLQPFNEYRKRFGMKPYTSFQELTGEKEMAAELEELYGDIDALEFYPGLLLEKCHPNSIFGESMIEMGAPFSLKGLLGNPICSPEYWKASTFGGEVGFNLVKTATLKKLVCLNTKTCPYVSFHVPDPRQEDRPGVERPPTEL

Compound	inhibition in vivo at 10 mg/kg [1]	Activity [2]	Activity [3]	inhibition in vivo at 100 mg/kg [4]	inhibition [5]	Activity [6]	inhibition in vivo at 20 mg/kg [7]	inhibition in vivo at 30 mg/kg [8]	Activity [9]	IC50 [10]
COc1ccc2c(c1)c(CC(=O)O)c(C)n2C(=O)c1ccc(Cl)cc1 [INDOMETHACIN]	51 to 90.4%	98.6%	73.7%							
Cc1cccc(NC(=O)N2CCc3ccccc3[C@@H]2c2ccccc2)c1		99.2%		86.4%						
O=C(Nc1c(Cl)cccc1Cl)N1CCc2ccccc2[C@@H]1c1ccccc1		100%		92.7%	Dose-dependent effect					
O=C(Nc1cccc(F)c1)N1CCc2ccccc2[C@@H]1c1ccccc1		89.8%		84.9%						
O=C(Nc1ccccc1)N1CCc2ccccc2[C@@H]1c1ccccc1	60.3%	100%	69.6%	95%	Dose-dependent effect	76.4%	69.5%	74.7%	87.2%	5.42 µM
COc1cccc(NC(=O)N2CCc3ccccc3[C@@H]2c2ccccc2)c1		94.6%		85.9%						
O=C(Nc1cccc(Br)c1)N1CCc2ccccc2[C@@H]1c1ccccc1	44.2%	89.8%	58.7%	83.1%		63.7%	51.7%	61.2%	80.2%	7.85 µM
O=C(NCc1ccccc1)N1CCc2ccccc2[C@@H]1c1ccccc1		96.3%		77.4%						
O=C(N(c1ccccc1)c1ccccc1)N1CCc2ccccc2[C@@H]1c1ccccc1		73.3%		86.3%						
O=C(Nc1cccc(Cl)c1)N1CCc2ccccc2[C@@H]1c1ccccc1		100%		88%						

— ChEMBL document CHEMBL4033746, “Synthesis, potential anti-inflammatory and analgesic activities study of (S)-N-substituted-1-phenyl-3,4-dihydroisoquinoline-2(1H)-carboxamides” (Bioorg Med Chem Lett, 2017)
